Source: patent publication US7767677B2, “Heterocyclic derivatives and their use as stearoyl-CoA desaturase inhibitors” (Xenon Pharmaceuticals Inc., priority 2004, dated 2010)

`CCc1nc(-c2ccc(N3CCN(C(=O)c4ccccc4C(F)(F)F)CC3)nn2)no1` [Example 4, {4-[6-(5-ethyl-[1,2,4]oxadiazol-3-yl)pyridazin-3-yl]piperazin-1-yl}-(2-trifluoromethylphenyl)methanone] gave a melting point of 204 °C. For `CCCCc1nc(-c2ccc(N3CCN(C(=O)c4ccccc4C(F)(F)F)CC3)nn2)no1` [Example 4.1, {4-[6-(5-butyl[1,2,4]oxadiazol-3-yl)pyridazin-3-yl]piperazin-1-yl}-(2-trifluoromethylphenyl)methanone], the melting point was 175 °C. `CCCc1noc(-c2ccc(N3CCN(C(=O)c4ccccc4C(F)(F)F)CC3)nn2)n1` [Example 7, {4-[6-(3-propyl[1,2,4]oxadiazol-5-yl)pyridazin-3-YL]piperazin-1-yl}-(2-trifluoromethylphenyl)methanone] showed a melting point of 226 °C. `CCCCCc1noc(-c2ccc(N3CCN(C(=O)c4ccccc4C(F)(F)F)CC3)nn2)n1` [Example 7.1, {4-[6-(3-pentyl[1,2,4]oxadiazol-5-yl)pyridazin-3-yl]piperazin-1-yl}-(2-trifluoromethylphenyl)methanone] showed a melting point of 164 °C. `O=C(c1cc(F)ccc1C(F)(F)F)N1CCN(c2ccc(-c3ncc(-c4ccccc4)o3)nn2)CC1` [Example 12, (5-fluoro-2-trifluoromethylphenyl)-{4-[6-(5-phenyloxazol-2-yl)pyridazin-3-yl]piperazin-1-yl}methanone] showed a melting point of 122 to 125 °C.
